Like-named read-outs stand apart in the source and are kept apart here.
Experiments:
Solubility = type: physicochemical; settings: effect of longer alkyl central chain
[1] = system: Leishmania infantum promastigotes; assay: Growth of luciferase-expressing promastigotes (luciferase assay); type: cell-based; settings: for IC50: Leishmania infantum; for parasite growth inhibition, promastigote: range of concentration 0.39 to 12.50 μM, FIG. 1
Description: Leishmania infantum (clone MHOM/MA671TMA-P263) promastigotes transfected with reporter gene that encode to the luciferase enzyme (Roy et al, 2000) were grown at 27° C. in RPMI medium (Gibco) supplemented with 10% of heat inactivated fetal bovine serum (FBS-Gibco), 2 mM L-glutamine (Gibco), 20 mM Hepes (Gibco), 100 U/ml penicillin (Gibco) and 100 μg/ml streptomycin (Gibco). The parasites (10^6/ml) in the logarithmic phase (2 days of culture) were incubated with a serial range of concentrations of each drug for 3 days at 27° C. and the growth of parasites was determined by using the luciferase activity using luciferin as subtract.
FIG. 1. […] The results are representative of 5 assays made independently. […] The growth curves represented indicate the percentage growth related to the control for each concentration after luciferase activity determination. Each point represents a mean of 3 assays±STD.
(§1) Cytotoxicity determined by luciferase assay. The results were obtained after treatment of different parasite forms with a range of different drug concentrations 0.30 to 100 μM after 72 h of incubation. The results were representative of medium±SD at least 5 assays.

CaCo-2 colon carcinoma = assay: Cytotoxicity against CaCo-2 cells by MTT assay; type: cell-based; settings: Homo sapiens, 0.01-40 μM
Description: Cytotoxity was evaluated for CaCo-2 colon carcinoma using the MTT assay with protocols appropriate for the individual test system.^11,13 CaCo-2 cells were maintained in Earle's Minimum Essential Medium (Sigma), supplemented with 10% fetal calf serum (Biosera), 2 mM L-glutamine (Sigma), 1% non-essential amino acids (Sigma), 100 IU mL^−1 penicillin and 100 μg mL^−1 streptomycin (Sigma). Exponentially growing cells were plated at 2×10^4 cells cm^−2 into 96-well plates and incubated for 24 h before the addition of drugs. Stock solutions of compounds were initially dissolved in 20% DMSO and further diluted with fresh complete medium. After 24 and 48 h of incubation at 37° C., the medium was removed and 200 μl of MTT reagent (1 mg/mL) in serum free medium was added to each well. The plates were incubated at 37° C. for 4 h. At the end of the incubation period, the medium was removed and pure DMSO (200 μl) was added to each well. The metabolized MTT product dissolved in DMSO was quantified by reading the absorbance at 560 nm on a micro plate reader (Dynex Technologies, USA). IC50 values are defined, as the drug concentrations required to reduce the absorbance by 50% of the control values. The IC50 values were calculated from the equation of the logarithmic line determined by fitting the best line (Microsoft Excel) to the curve formed from the data. The IC50 value was obtained from the equation for y=50 (50% value).

[2] = system: axenic amastigote of Leishmania infantum; assay: Growth of luciferase-expressing axenic amastigotes (luciferase assay); type: cell-based; settings: for parasite growth inhibition, axenic amastigote: FIG. 1; for IC50: Leishmania infantum, axenic amastigotes, 72 h of incubation, 37° C.
Description: (§2) The axenic amastigote of Leishmania infantum (clone MHOM/MA671TMA-P263) transfected with reporter gene that encode to the luciferase enzyme (Roy et al, 2000) were grown at 37° C. with 5% CO2 in a cell-free medium called MAA (medium for axenically grown amastigote). The medium MAA/20, consisted of modified medium 199 (Hanks' balanced salts) supplemented with 0.5% soya trypto-casein, 15 mM D-glucose, 5 mM L-glutamine, 4 mM NaHCO3, 0.023 mM bovine hemin, 25 mM HEPES final pH, 6.5 and 20% inactivated fetal calf serum. The parasites were incubated with different concentrations during 3 days at 37° C. with 5% CO2. The growth of the parasites was done by measuring the luciferase activity using luciferin as a substract. The intracellular amastigotes of L. infantum were cultured in a macrophage differentiated human leukemia monocyte cell line (THP-1 cells). The THP-1 cells were differentiated during 2 days with 20 ng/ml of PMA in RPMI-1640 medium supplemented with 10% FCS, 2 mM glutamine, 100 IU of penicillin/ml and 100 μg/ml of streptomycin. The non differentiated cells were washed with prewarmed medium and the adherent cells sinfected with luciferase-expressing axenic amastigotes at a parasite/macrophage ratio of 3:1 for 4 h at 37° C. with 5% CO2. Noninternalized parasites were removed and serial dilutions of each drug were made in the RPMI medium supplemented with 10% FCS. After 3 days of drug exposure, wells containing adherent differentiated THP-1 cells were washed and luciferase activity was determined.
FIG. 1. […] The results are representative of 5 assays made independently. The promastigote and axenic amastigote were incubated with a serial range of drug concentrations 0.30 to 12.5 μM, at 27° C. and 3.125 to 100 μM at 37° C. in 5% CO2, respectively, during 3 days. The growth curves represented indicate the percentage growth related to the control for each concentration after luciferase activity determination. Each point represents a mean of 3 assays±STD.
as §1

[3] = system: intracellular amastigotes of L. infantum; assay: Intracellular amastigotes in differentiated THP-1 cells (luciferase assay); type: cell-based, Leishmania infantum; settings: for IC50: Leishmania infantum, intracellular amastigotes in THP-1 cells, 72 h of incubation, read-out: IC50(μM) Amastigote intracellular; for parasite growth inhibition, intracellular amastigote: range of concentration 0.39 to 12.50 μM
Description: as §2
Cytotoxicity determined by luciferase assay. […] The results were representative of medium±SD at least 5 assays.

[4] = most solvents; previously reported (Kong et al, 2000); cited from earlier work
[5] = promastigote, unit inferred, read-out: IC50±SD promastigote
[6] = promastigotes, 72 h of incubation, 27° C., read-out: IC50(μM) Promastigotes
[7] = 24 h drug exposure, read-out: IC50 (μM) 24 h
[8] = 48 h drug exposure, read-out: IC50 (μM) 48 h

With `O=C1c2cccc3cccc(c23)C(=O)N1CCCNCCCCCCCCCNCCCN1C(=O)c2cccc3cccc(c23)C1=O` [BNIPDanon, Bisnaphthalimidopropyldiaminononane] as the molecule, how does the aqueous solubility (Solubility) read?
Its aqueous solubility is “helps aqueous solubility”.

And the IC50 [1, 5]?
The IC50 was 2.09 ± 0.54 µM.

And the IC50 [1, 6]?
The IC50 was 2.09 ± 0.54 µM.

And the “parasite growth inhibition, promastigote” value [1]?
The value was “dose dependent inhibition of parasite growth”.

What about the IC50 (CaCo-2 colon carcinoma; [7]) of the same molecule?
Its IC50 is 3.6 µM.

And the IC50 (CaCo-2 colon carcinoma; [8])?
The IC50 was 0.67 µM.

And the “parasite growth inhibition, axenic amastigote” value [2]?
The value was “dose dependent inhibition of parasite growth”.

And the IC50 [2]?
Its IC50 is 17.4 ± 0.97 µM.

And the IC50 [3]?
The IC50 was 6.03 ± 0.67 µM.

And the “parasite growth inhibition, intracellular amastigote” value [3]?
The value was “dose dependent inhibition of parasite growth”.

Which IC50 [1, 5] does the source give for `O=C1c2cccc3cccc(c23)C(=O)N1CCCNCCCNCCCNCCCN1C(=O)c2cccc3cccc(c23)C1=O` [BNIPDpta, Bisnaphthalimidopropyldipropiltriamine] here?
Its IC50 is 1.09 ± 0.12 µM.

What about the IC50 [1, 6] of the same molecule?
Its IC50 is 1.09 ± 0.12 µM.

What about the “parasite growth inhibition, promastigote” value [1] of the same molecule?
Its value is “dose dependent inhibition of parasite growth”.

What about the IC50 (CaCo-2 colon carcinoma; [7]) of the same molecule?
The IC50 was 5 µM.

What about the IC50 (CaCo-2 colon carcinoma; [8]) of the same molecule?
Its IC50 is 3.2 µM.

And the “parasite growth inhibition, axenic amastigote” value [2]?
The value was “dose dependent inhibition of parasite growth”.

What about the IC50 [2] of the same molecule?
The IC50 was 5.24 ± 0.93 µM.

What about the IC50 [3] of the same molecule?
The IC50 was 4.22 ± 1.07 µM.

And the “parasite growth inhibition, intracellular amastigote” value [3]?
The value was “dose dependent inhibition of parasite growth”.

With `O=C1c2cccc3cccc(c23)C(=O)N1CCCNCCCCCNCCCN1C(=O)c2cccc3cccc(c23)C1=O` [BNIPDapen, Bisnaphthalimidopropyldiaminopentane] as the molecule, how does the IC50 (CaCo-2 colon carcinoma; [7]) read?
The IC50 was 11 µM.

What about the IC50 (CaCo-2 colon carcinoma; [8]) of the same molecule?
The IC50 was 6.5 µM.

What does the source list for `O=C1c2cccc3cccc(c23)C(=O)N1CCCNCCCCCCCCCCNCCCN1C(=O)c2cccc3cccc(c23)C1=O` [BNIPDadec, Bisnaphthalimidopropyldiaminodecane]?
aqueous solubility (Solubility): helps aqueous solubility; IC50 (CaCo-2 colon carcinoma; [7]): 0.77 µM; IC50 (CaCo-2 colon carcinoma; [8]): 0.36 µM

For `O=C1c2cccc3cccc(c23)C(=O)N1CCCNCCCCCCNCCCN1C(=O)c2cccc3cccc(c23)C1=O` [BNIPDahex, Bisnaphthalimidopropyldiaminohexane], which IC50 (CaCo-2 colon carcinoma; [7]) is on record?
Its IC50 is 0.65 µM.

What about the IC50 (CaCo-2 colon carcinoma; [8]) of the same molecule?
The IC50 was 2 µM.

Which IC50 [1, 5] does the source give for `O=C1c2cccc3cccc(c23)C(=O)N1CCCNCCCCNCCCN1C(=O)c2cccc3cccc(c23)C1=O` [BNIPPut, Bisnaphthalimidopropylputrescine] here?
Its IC50 is 0.4 ± 0.15 µM.

And the IC50 [1, 6]?
Its IC50 is 0.4 ± 0.15 µM.

And the “parasite growth inhibition, promastigote” value [1]?
Its value is “dose dependent inhibition of parasite growth”.

What about the “parasite growth inhibition, axenic amastigote” value [2] of the same molecule?
The value was “dose dependent inhibition of parasite growth”.

What about the IC50 [2] of the same molecule?
The IC50 was 5.49 ± 0.67 µM.

And the IC50 [3]?
Its IC50 is 4.53 ± 0.54 µM.

What about the “parasite growth inhibition, intracellular amastigote” value [3] of the same molecule?
The value was “dose dependent inhibition of parasite growth”.

And the solubility [4]?
The solubility was “not soluble in most solvents”.

For `O=C1c2cccc3cccc(c23)C(=O)N1CCCNCCNCCNCCCN1C(=O)c2cccc3cccc(c23)C1=O` [BNIPDeta, Bisnaphthalimidopropyldietiltriamine], which IC50 [1, 5] is on record?
Its IC50 is 0.96 ± 0.17 µM.

What about the IC50 [1, 6] of the same molecule?
The IC50 was 0.96 ± 0.17 µM.

What about the “parasite growth inhibition, promastigote” value [1] of the same molecule?
The value was “dose dependent inhibition of parasite growth”.

And the IC50 (CaCo-2 colon carcinoma; [7])?
The IC50 was 21.7 µM.

And the IC50 (CaCo-2 colon carcinoma; [8])?
The IC50 was 22.3 µM.

What about the “parasite growth inhibition, axenic amastigote” value [2] of the same molecule?
The value was “dose dependent inhibition of parasite growth”.

And the IC50 [2]?
The IC50 was 6.97 ± 0.2 µM.

What about the IC50 [3] of the same molecule?
Its IC50 is 9.52 ± 0.56 µM.

What about the “parasite growth inhibition, intracellular amastigote” value [3] of the same molecule?
Its value is “dose dependent inhibition of parasite growth”.

Which results are given for `O=C1c2cccc3cccc(c23)C(=O)N1CCCNCCCCCCCCNCCCN1C(=O)c2cccc3cccc(c23)C1=O` [BNIPDaoct, Bisnaphthalimidopropyldiaminooctane]?
aqueous solubility (Solubility): helps aqueous solubility; IC50 [1, 5]: ≤ 0.39 µM; IC50 [1, 6]: ≤ 0.39 µM; parasite growth inhibition, promastigote [1]: dose dependent inhibition of parasite growth; IC50 (CaCo-2 colon carcinoma; [7]): 6.2 µM; IC50 (CaCo-2 colon carcinoma; [8]): 3.2 µM; parasite growth inhibition, axenic amastigote [2]: didn't inhibited the parasite growth up to 50 μM; IC50 [2]: ≥ 50 µM; IC50 [3]: 2.43 ± 0.19 µM; parasite growth inhibition, intracellular amastigote [3]: dose dependent inhibition of parasite growth

Which IC50 (CaCo-2 colon carcinoma; [7]) does the source give for `O=C1c2cccc3cccc(c23)C(=O)N1CCCNCCCCCCCNCCCN1C(=O)c2cccc3cccc(c23)C1=O` [BNIPDahep, Bisnaphthalimidopropyldiaminoheptane] here?
The IC50 was 3.2 µM.

And the IC50 (CaCo-2 colon carcinoma; [8])?
Its IC50 is 0.94 µM.

What does the source list for `O=C1c2cccc3cccc(c23)C(=O)N1CCCNCCCCCCCCCCCCNCCCN1C(=O)c2cccc3cccc(c23)C1=O` [BNIPDadod, Bisnaphthalimidopropyldiaminododecane]?
IC50 (CaCo-2 colon carcinoma; [7]): 4.5 µM; IC50 (CaCo-2 colon carcinoma; [8]): 2.7 µM

For `O=C1c2cccc3cccc(c23)C(=O)N1CCCNCCCCNCCCNCCCN1C(=O)c2cccc3cccc(c23)C1=O` [BNIPSpd, Bisnaphthalimidopropylespermidine], which IC50 [1, 5] is on record?
Its IC50 is 1.86 ± 0.82 µM.

What about the IC50 [1, 6] of the same molecule?
The IC50 was 1.86 ± 0.82 µM.

And the “parasite growth inhibition, promastigote” value [1]?
Its value is “dose dependent inhibition of parasite growth”.

And the IC50 (CaCo-2 colon carcinoma; [7])?
Its IC50 is 0.15 µM.

And the IC50 (CaCo-2 colon carcinoma; [8])?
The IC50 was 0.47 µM.

And the “parasite growth inhibition, axenic amastigote” value [2]?
Its value is “dose dependent inhibition of parasite growth”.

And the IC50 [2]?
Its IC50 is 9.61 ± 1.84 µM.

What about the IC50 [3] of the same molecule?
The IC50 was 8.92 ± 1.07 µM.

What about the “parasite growth inhibition, intracellular amastigote” value [3] of the same molecule?
Its value is “dose dependent inhibition of parasite growth”.

From patent publication US8350036B2, “Bisnaphthalimidopropyl derivative compounds with anti-parasite and anti-cancer activity” (Universidade Do Porto, priority 2006, dated 2013)
